Data: patent US7384950B2, “Thienopyrimidinediones and their use in the modulation of autoimmune disease” (AstraZeneca AB, priority 2001, dated 2008)
pIC50: −log10 of the molar value.

System: PMA/ionomycin-stimulated peripheral blood mononuclear cell (PBMC)
Experiment: Inhibition of PMA/ionomycin-stimulated peripheral blood mononuclear cell proliferation
Assay type: cell-based
Conditions: human PBMC from a single donor, 10% human serum, PMA 0.5 ng/ml and ionomycin 500 ng/ml, 72 hours, 3H-thymidine incorporation; read-out: IA50 (the source's name)
Method: The ability of compounds which can inhibit PMA/ionomycin-stimulated peripheral blood mononuclear cell proliferation can be assessed, for example using the procedure set out below:
Inhibition of PMA/ionomycin-stimulated Peripheral Blood Mononuclear Cell Proliferation
The assay for PMA/ionomycin-stimulated PBMC proliferation was performed in 96-well flat bottomed microtitre plates. Compounds were prepared as 10 mM stock solutions in dimethyl sulfoxide. A 50-fold dilution of this was prepared in RPMI and serial dilutions were prepared from this solution. 10 μl of the 50-fold diluted stock, or dilutions of it, were added to the well to give concentrations in the assay starting at 9.5 μM and going down. Into each well was placed 1×10^5 PBMC, prepared from human peripheral blood from a single donor, in RPMI1640 medium supplemented with 10% human serum, 2 mM glutamine and penicillin/streptomycin. Phorbol myristate acetate (PMA) (0.5 ng/ml final concentration) and ionomycin (500 ng/ml final concentration) were added to these cells in supplemented RPMI1640 medium (as above) so that the final volume of the assay was 0.2 ml. […] The level of radioactivity incorporated by the cells was then determined and this is a measure of proliferation.

CC(C)n1c(=O)n(C)c(=O)c2c(C(=O)N3C[C@H](O)CO3)c(Cc3ccnc4ccccc34)sc21 [Example 20, (S) 5-{4-Hydroxyisoxazolidin-2-ylcarbonyl}-3-methyl-1-(isopropyl)-6-(4-quinolinylmethyl)thieno[2,3-d]pyrimidine-2,4(1H,3H)-dione] showed a pIC50 of 8.30.
